# In US20090047224A1, “Cosmetic Process for Preventing or Treating the Signs of Skin Ageing or the Orange-Peel Appearance” (L'OREAL, priority 2003, published 2009):
# Read-outs that look alike come from different tables or passages of the source.
# Assays:
# bovine serum albumin = test: Anti-glycation effect: inhibition of glycation of bovine serum albumin by D-ribose, measured by fluorescence; format: biochemical; conditions: for IC50: BSA + D-ribose 100 mM, 37° C., four weeks; for anti-glycation activity: compared with aminoguanidine
# Method: A solution of bovine serum albumin at 5 or 10 mg/ml dissolved in phosphate-buffered saline is incubated at 37° C. for four weeks in the presence or absence of the test compounds at a concentration of between 20 and 160 μg/ml, and in the presence or absence of D-ribose at 100 mM.
# After this incubation, dialysis of each sample is performed for 24 hours against MilliQ water.
# The glycation of the BSA is evaluated by measuring the fluorescence of each sample at λex 320/λex 380 nm (which corresponds to the formation of the pentosidine glycation product) and at λex 370/λex 440 nm (which corresponds to AGEs).
# The inhibition of glycation corresponds to a decrease in fluorescence compared with the glycated control (treated with sugar). The concentration of compound leading to a 50% inhibition of glycation, or IC50, is determined.
# Aminoguanidine is used as positive control and tested at various concentrations of between 20 and 160 μg/ml.
# [1] = system: supercoiled circular DNA (plasmid pBR322); test: Antioxidant effect: DNA-protecting effect under simulated daily UV with ferric ions and riboflavin; format: biochemical; conditions: 30 minutes simulated daily UV
# Method: The DNA-protecting effect of the compounds according to the invention was evaluated by comparison with vitamin C and N-acetylcysteine, which are two well-known antioxidants.
# In this test, supercoiled circular DNA (plasmid pBR322, Roche) is placed in solution in the presence of 10 mM phosphate buffer (pH=7) and ferric ions (FeCl3, Sigma) at a concentration of 1 μM and in the presence of riboflavin (Sigma) at a concentration of 0.5 μM. The iron amplifies, via the Fenton reaction, the photo-oxidative impact on the DNA. Its presence also makes it possible to evaluate the potential chelating effect of the N-hydroxy imides according to the invention.
# The samples are exposed for 30 minutes to simulated daily UV (attenuated UVB+total UVA) obtained using the Oriel solar simulator equipped with a suitable optical filter and a dichroic mirror. The corresponding spectrum is illustrated in FIG. 3.
# The DNA is then subjected to electrophoresis on 1% agarose gel to separate the supercoiled forms, relaxed due to induction of breaks and linearized. After treatment in a gel with the fluorescent intercalating agent ethidium bromide, these three forms may be quantified by densitometry of the agarose gel under UV.
# [2] = Release of ammonia on heating; format: physicochemical; conditions: in contrast with aminoguanidine
# [3] = fluorescence corresponding to AGEs, read-out: λex 370/λex 440 nm IC50
# [4] = fluorescence corresponding to formation of the pentosidine glycation product, read-out: λex 320/λex 380 nm IC50
SMILES,IC50 (bovine serum albumin; [3]) [µM],IC50 (bovine serum albumin; [4]) [µM],further results
"N=C(N)NN [Aminoguanidine, reference compound]",700,200,
"O=C1CCCC(=O)N1O [Compound 6, N-hydroxy-piperidine-2,6-dione]",,,anti-glycation activity (bovine serum albumin): more moderate than aminoguanidine
"O=C1CCC(=O)N1O [Compound 1, N-hydroxysuccinimide]",,,anti-glycation activity (bovine serum albumin): more moderate than aminoguanidine; releasing ammonia on heating [2]: not releasing ammonia on heating
"CC(=O)N[C@@H](CS)C(=O)O [N-Acetylcysteine, reference compound]",,,Score (level of DNA protection) ([1]; Concentration 1 mM): ++ (The score (++) means that the active agent reduces the photodegradation of the DNA by at least 50%)
"O=C1O[C@H]([C@@H](O)CO)C(O)=C1O [Vitamin C, reference compound]",,,Score (level of DNA protection) ([1]; Concentration 1 mM): + (The score (+) means that the active agent reduces the photodegradation of the DNA by at least 20%)

# Continued, in another order:
IC50 (bovine serum albumin; [3]) [µM],IC50 (bovine serum albumin; [4]) [µM],SMILES,further results
600,800,"O=C1C=CC(=O)N1O [Compound 2, N-hydroxymaleimide]",
250,200,"O=C1c2ccccc2C(=O)N1O [Compound 4, N-hydroxyphthalimide]",
40,30,"O=C1C=C(c2ccccc2)C(=O)N1O [Compound 3, N-hydroxy-2-phenylmaleimide]",Score (level of DNA protection) ([1]; Concentration 0.1 mM): ++ (The score (++) means that the active agent reduces the photodegradation of the DNA by at least 50%)
45,0.8,"O=C1c2cccc3cccc(c23)C(=O)N1O [Compound 5, N,N-(1,8-naphthaloyl)hydroxylamine]",Score (level of DNA protection) ([1]; Concentration 0.01 mM): + (The score (+) means that the active agent reduces the photodegradation of the DNA by at least 20%)
